In patent US8361998B2, “Compounds and their use as IKACh blockers” (AstraZeneca AB, priority 2010, dated 2013) one finds IC50 data, which are given here for 24 molecules.

A word on the IC50: it is the midpoint of a concentration-inhibition curve.

This test has as its target T1, human cardiac ion channel proteins hKir3.1/Kir3.4 (Homo sapiens, UniProt P48544+P48549).
T1 construct: expressed in transfected cells
T1 sequence (P48549 1-501): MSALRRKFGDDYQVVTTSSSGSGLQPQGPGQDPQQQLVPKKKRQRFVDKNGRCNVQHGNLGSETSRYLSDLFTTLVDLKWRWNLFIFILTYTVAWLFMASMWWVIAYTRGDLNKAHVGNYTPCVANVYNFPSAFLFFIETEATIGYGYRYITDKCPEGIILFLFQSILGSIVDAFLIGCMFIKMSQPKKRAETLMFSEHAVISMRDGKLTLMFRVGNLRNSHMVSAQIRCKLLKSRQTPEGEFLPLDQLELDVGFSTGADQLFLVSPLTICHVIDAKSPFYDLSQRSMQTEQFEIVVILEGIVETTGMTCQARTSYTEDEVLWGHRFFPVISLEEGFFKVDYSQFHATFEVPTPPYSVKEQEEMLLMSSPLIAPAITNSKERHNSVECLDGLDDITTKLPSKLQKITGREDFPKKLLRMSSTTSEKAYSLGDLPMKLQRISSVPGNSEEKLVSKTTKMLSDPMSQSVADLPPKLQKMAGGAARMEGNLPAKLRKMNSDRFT
T1 sequence (P48544 1-419): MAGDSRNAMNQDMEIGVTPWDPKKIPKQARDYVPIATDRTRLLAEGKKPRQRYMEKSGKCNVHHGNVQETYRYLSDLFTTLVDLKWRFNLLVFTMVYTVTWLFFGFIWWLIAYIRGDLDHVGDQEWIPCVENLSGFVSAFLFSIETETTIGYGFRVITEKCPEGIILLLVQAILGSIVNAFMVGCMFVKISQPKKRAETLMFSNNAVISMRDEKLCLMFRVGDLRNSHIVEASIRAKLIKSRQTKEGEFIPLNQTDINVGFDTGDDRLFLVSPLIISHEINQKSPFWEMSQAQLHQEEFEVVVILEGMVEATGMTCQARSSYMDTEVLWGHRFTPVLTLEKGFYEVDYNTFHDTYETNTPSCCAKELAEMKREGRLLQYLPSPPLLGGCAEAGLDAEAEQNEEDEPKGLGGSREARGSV
Description: Atomic Absorption Screening (AAS) Rb efflux assay of hKir3.1/Kir3.4 block, carbachol/high K+ stimulated, 10-pt or 7-pt CR. Type of test: cell-based. The conditions noted are these: printed as IC50 >67 μM in the 10-pt CR assay or IC50 >27 μM in the 7-pt CR assay; assay format per compound not stated; read-out: IC50. The text has this:
Human KCNJ3 encoding Kir3.1 (Genbank acc. No. NM_002239) was inserted between EcoRI and NotI in the pIRESneo3 vector (Clontech Laboratories, Inc. CA, USA). Human KCNJ5 encoding Kir3.4 (Genbank Acc. No. BC069482) was inserted between EcoR1 and Not1 in the pIRESpuro3 vector (Clontech Laboratories, Inc. CA, USA). A Kozak sequence (GCCACC) was introduced before the start codon ATG of both constructs. Chinese Hamster Ovary K1, CHO-FLP/IN, cells (Invitrogen Corporation, Paisley, UK) were transfected simultaneously using Lipofectamine 2000 reagent (Invitrogen Corporation, Paisley, UK). Geneticin 600 μg/mL (Invitrogen Corporation, Paisley, UK) and puromycin 3 μg/mL (BD Bioscience) were added to the cell culture medium 3 days after transfection. Two weeks after transfection, colonies had appeared and were manually picked and sorted to one cell per well in a 96-well plate. Cells were then tested for Kir3.1 and Kir3.4 expression using membrane potential assay, Western Blot and Immunocytochemistry. […] The cell line was re-sorted by flow cytometry and resulting clones were assayed electrophysiologically using IonWorks (Molecular Devices) and later validated on the Q-Patch (Sophion A/S).
The stable cell line was cultured in DMEM/F12 with Glutamax 1 (Invitrogen Corporation, Paisley, UK), supplemented with foetal bovine serum 10%, puromycin 3 μg/mL, hygromycin 300 μg/mL and geneticin 600 μg/mL (Invitrogen Corporation, Paisley, UK). Care was taken not to seed cells at too low density and cells were passaged at approximately 70-80% confluency. Cells used for patch-clamp experiments were prepared by washing using PBS (—Mg, —Ca^2+), 2 times, detached using Accutase (Sigma). For Q-Patch measurements, storage medium was prepared fresh by adding 1.25 mL of 1M Hepes (GibcoBRL) to 50 mL CHO-SFM II medium (GibcoBRL) and detached cells were diluted to 2 million cells/mL in this medium. Frozen (Cryopreserved) cells were used for Atomic Absorption Screening (AAS) and plated poly-D-lysine 384-well plates (Greiner) at a density of 11,000-13,000 cells/well, the day before assay.
The blocking effects of compounds on the human cardiac ion channel proteins hKir3.1/Kir3.4 were assessed in CHO-K1 cells stably expressing the channel proteins using Atomic Absorption Screening (AAS). Cells were washed and then loaded with 25 μL Rb-loading buffer for three hours at 37° C. After that, the cells were washed again and 25 μL of diluted compound was transferred to the cell plate, incubated for 5 min in RT, and then […] of Carbachol/high K+ (10 μM carbachol and 20 mM KCl final concentration) buffer added to stimulate the cells and open the Kir3.1/Kir3.4 channel. After 10 min stimulation, […] of the supernatant was transferred to a new microplate, 45 μL washing buffer added to the supernatant and the level of Rb in the supernatant was then measured using an Aurora ICR 8000. Compounds were studied at concentrations ranging from 0.003 to 67 μmol/L (dilutions by three, 10-pt CR) or from 0.037 to 27 μmol/L (dilutions by three, 7-pt CR).
Stock solutions of compounds were prepared in DMSO 10 mM and stored at RT. Buffers used for AAS contained (in mM): HEPES 20, NaCl 150, MgCl2 1.0, CaCl2 2.0 and NaH2PO4 0.8 and Glucose 10 (wash 1) or KCl 5 and Glucose 5 (wash 2) or KCl 5 (dilution buffer). The High K^+ channel opener buffer contained (in mM): HEPES 20, NaCl 130, MgCl2 1.0, CaCl2 2.0 and NaH2PO4 0.8 together with KCl 20. Solutions used for Q-Patch (extracellular) in mM: NaCl 145, KCl 4, CaCl2 2.0, MgCl2 1.0, HEPES 10 and glucose 10. The high K^+ extra cellular solution used for Q-Patch in mM: NaCl 96.7, KCl 50.7, CaCl2 2.0, MgCl2 1.0, HEPES 10 and glucose 10 while the intra cellular solution used was (in mM): KCl 120, CaCl2 5.374, MgCl2 1.75, EGTA 10, KOH 3.125, HEPES 10, Na2ATP 4.
Results are given as mean IC50 of >4 replicates (10-pt CR, AAS) or >3 replicates (7-pt CR, AAS). Some of the data in Table 1 are mean values of two or more runs. […]

As to `CC(C)[C@@H](CN1CCCCC1)N(C)C(=O)c1cccc(C#N)c1` [3-Cyano-N-methyl-N-[(1S)-2-methyl-1-(piperidin-1-ylmethyl)propyl]benzamide], the half-maximal inhibitory concentration (IC50) was above 27 µM.

Take `C[C@@H](CN1CCCC1)N(C)C(=O)c1ccc(Br)cc1` [4-Bromo-N-methyl-N-[(1S)-1-methyl-2-pyrrolidin-1-ylethyl]benzamide]: the IC50 is above 27 µM. With `CC(C)[C@@H](CCN1CCCC1)N(C)C(=O)c1ccc(Cl)cc1F` [4-Chloro-2-fluoro-N-methyl-N-[(1R)-2-methyl-1-(2-pyrrolidin-1-ylethyl)propyl]benzamide] the figure was above 27 µM. With `CC(C)[C@@H](CN1C[C@@H](O)[C@H](O)C1)N(C)C(=O)c1ccc(Cl)cc1` [4-Chloro-N-((S)-1-((3R,4R)-3,4-dihydroxypyrrolidin-1-yl)-3-methylbutan-2-yl)-N-methylbenzamide] the figure was above 27 µM; with `CC(C)[C@@H](CN1C[C@@H](O)[C@H](O)C1)N(C)C(=O)c1ccc(C#N)cc1` [4-Cyano-N-((S)-1-((3R,4R)-3,4-dihydroxypyrrolidin-1-yl)-3-methylbutan-2-yl)-N-methylbenzamide], above 27 µM. Then `CC(C)[C@@H](CN1C[C@H](O)[C@@H](O)C1)N(C)C(=O)c1ccc(C#N)cc1` [4-Cyano-N-((S)-1-((3S,4S)-3,4-dihydroxypyrrolidin-1-yl)-3-methylbutan-2-yl)-N-methylbenzamide], with above 27 µM; and `Cc1cc(C(=O)N(C)C(C)(C)CN2CCCC2)ccc1F` [4-Fluoro-N,3-dimethyl-N-(2-methyl-1-(pyrrolidin-1-yl)propan-2-yl)benzamide], with above 27 µM; and `CC(C)[C@@H](CN1CC(O)C1)N(C)C(=O)c1ccc(F)c(CO)c1` [4-Fluoro-N-[(1S)-1-[(3-hydroxyazetidin-1-yl)methyl]-2-methyl-propyl]-3-(hydroxymethyl)-N-methyl-benzamide], with above 27 µM. For `CC(C)[C@@H](CN1CCCC1)N(C)C(=O)c1ccc(F)cc1` [4-Fluoro-N-methyl-N-[(1S)-2-methyl-1-(pyrrolidin-1-ylmethyl)propyl]benzamide], the 50% inhibitory concentration (IC50) was above 27 µM.

As to `CC(C)[C@H](CN1CCC1)N(C)C(=O)c1ccc(Br)cc1` [(R)-N-(1-(Azetidin-1-yl)-3-methylbutan-2-yl)-4-bromo-N-methylbenzamide], the IC50 is above 27 µM.

Regarding `CC(C)[C@@H](CN1CC(F)(CO)C1)N(C)C(=O)c1ccc(F)c(F)c1` [(S)-3,4-Difluoro-N-(1-(3-fluoro-3-(hydroxymethyl)azetidin-1-yl)-3-methylbutan-2-yl)-N-methylbenzamide], the IC50 is above 27 µM. For `CC(C)[C@@H](CN1CC(C)(O)C1)N(C)C(=O)c1ccc(F)c(F)c1` [(S)-3,4-Difluoro-N-(1-(3-hydroxy-3-methylazetidin-1-yl)-3-methylbutan-2-yl)-N-methylbenzamide], the IC50 was above 27 µM. With `CC(C)[C@@H](CN1CCC(F)(F)C1)N(C)C(=O)c1ccc(Br)cc1` [(S)-4-Bromo-N-(1-(3,3-difluoropyrrolidin-1-yl)-3-methylbutan-2-yl)-N-methylbenzamide] the figure was above 27 µM. Consider `CC(C)[C@@H](CN1CCC(F)(F)C1)N(C)C(=O)c1ccc(Cl)cc1` [(S)-4-Chloro-N-(1-(3,3-difluoropyrrolidin-1-yl)-3-methylbutan-2-yl)-N-methylbenzamide], for which the half-inhibitory concentration (IC50) is above 27 µM. With `CC(C)[C@@H](CN1CC(F)C1)N(C)C(=O)c1ccc(C#N)cc1F` [(S)-4-Cyano-2-fluoro-N-(1-(3-fluoroazetidin-1-yl)-3-methylbutan-2-yl)-N-methylbenzamide] the figure was above 27 µM. With `CC(C)[C@@H](CN1CC(C)(O)C1)N(C)C(=O)c1ccc(F)cc1` [(S)-4-Fluoro-N-(1-(3-hydroxy-3-methylazetidin-1-yl)-3-methylbutan-2-yl)-N-methylbenzamide] the figure was above 27 µM; with `CC(C)[C@@H](CN1CCCC(F)(F)C1)N(C)C(=O)c1ccc(F)c(F)c1` [(S)-N-(1-(3,3-Difluoropiperidin-1-yl)-3-methylbutan-2-yl)-3,4-difluoro-N-methylbenzamide], above 27 µM. Then `Cc1cc(C(=O)N(C)[C@H](CN2CCC(F)(F)C2)C(C)C)ccc1F` [(S)-N-(1-(3,3-Difluoropyrrolidin-1-yl)-3-methylbutan-2-yl)-4-fluoro-N,3-dimethylbenzamide], with above 27 µM; and `COc1cccc(C(=O)N(C)[C@H](CN2CC(F)C2)C(C)C)c1` [(S)-N-(1-(3-Fluoroazetidin-1-yl)-3-methylbutan-2-yl)-3-methoxy-N-methylbenzamide], with above 27 µM. For the molecule `CC(C)[C@@H](CN1CC(C)(O)C1)N(C)C(=O)c1ccccc1` [(S)-N-(1-(3-Hydroxy-3-methylazetidin-1-yl)-3-methylbutan-2-yl)-N-methylbenzamide], the IC50 was above 27 µM.

In the case of `Cc1cc(C(=O)N(C)[C@H](CN2CCC(F)(F)CC2)C(C)C)ccc1F` [(S)-N-(1-(4,4-Difluoropiperidin-1-yl)-3-methylbutan-2-yl)-4-fluoro-N,3-dimethylbenzamide], the IC50 was above 27 µM. Then `COc1ccc(C(=O)N(C)[C@H](CN2CCC2)C(C)C)cc1F` [(S)-N-(1-(Azetidin-1-yl)-3-methylbutan-2-yl)-3-fluoro-4-methoxy-N-methylbenzamide], with above 27 µM; and `CC(C)[C@@H](CN1CCC1)N(C)C(=O)c1ccc(C#N)cc1` [(S)-N-(1-(Azetidin-1-yl)-3-methylbutan-2-yl)-4-cyano-N-methylbenzamide], with above 27 µM. Then `Cc1cc(F)ccc1C(=O)N(C)[C@H](CN1CCCC1)C(C)(C)C` [(S)-N-(3,3-Dimethyl-1-(pyrrolidin-1-yl)butan-2-yl)-4-fluoro-N,2-dimethylbenzamide], with above 27 µM.
